Results taken from the NIST ThermoML archive (doi:10.1016/j.fluid.2011.12.029).

Settings: Liquid, Vibrating tube method

CCCCCCCC[n+]1cccc(C)c1.F[B-](F)(F)F [N-octyl-3-methylpyridinium tetrafluoroborate]
Settings	mass density [kg/m3]
283.15 K, 100 kPa	1106.25
283.15 K, 5000 kPa	1108.56
283.15 K, 10000 kPa	1110.95
283.15 K, 15000 kPa	1113.26
283.15 K, 20000 kPa	1115.53
283.15 K, 25000 kPa	1117.71
283.15 K, 30000 kPa	1119.8
283.15 K, 35000 kPa	1121.93
283.15 K, 40000 kPa	1123.9
283.15 K, 45000 kPa	1125.95
283.15 K, 50000 kPa	1127.8
283.15 K, 55000 kPa	1129.77
283.15 K, 60000 kPa	1131.58
283.15 K, 65000 kPa	1133.37
288.15 K, 100 kPa	1102.88
288.15 K, 5000 kPa	1105.22
288.15 K, 10000 kPa	1107.61
288.15 K, 15000 kPa	1109.98
288.15 K, 20000 kPa	1112.32
288.15 K, 25000 kPa	1114.52
288.15 K, 30000 kPa	1116.64
288.15 K, 35000 kPa	1118.71
288.15 K, 40000 kPa	1120.76
288.15 K, 45000 kPa	1122.74
288.15 K, 50000 kPa	1124.72
288.15 K, 55000 kPa	1126.63
288.15 K, 60000 kPa	1128.51
288.15 K, 65000 kPa	1130.3
293.15 K, 100 kPa	1099.53
293.15 K, 5000 kPa	1102.06
293.15 K, 10000 kPa	1104.51
293.15 K, 15000 kPa	1106.86
293.15 K, 20000 kPa	1109.18
293.15 K, 25000 kPa	1111.4
293.15 K, 30000 kPa	1113.56
293.15 K, 35000 kPa	1115.81
293.15 K, 40000 kPa	1117.82
293.15 K, 45000 kPa	1119.87
293.15 K, 50000 kPa	1121.88
293.15 K, 55000 kPa	1123.82
293.15 K, 60000 kPa	1125.67
293.15 K, 65000 kPa	1127.47
298.15 K, 100 kPa	1096.08
298.15 K, 5000 kPa	1098.54
298.15 K, 10000 kPa	1101.04
298.15 K, 15000 kPa	1103.47
298.15 K, 20000 kPa	1105.84
298.15 K, 25000 kPa	1108.07
298.15 K, 30000 kPa	1110.33
298.15 K, 35000 kPa	1112.49
298.15 K, 40000 kPa	1114.56
298.15 K, 45000 kPa	1116.65
298.15 K, 50000 kPa	1118.65
298.15 K, 55000 kPa	1120.63
298.15 K, 60000 kPa	1122.5
298.15 K, 65000 kPa	1124.52
303.15 K, 100 kPa	1092.83
303.15 K, 5000 kPa	1095.28
303.15 K, 10000 kPa	1097.84
303.15 K, 15000 kPa	1100.3
303.15 K, 20000 kPa	1102.65
303.15 K, 25000 kPa	1104.99
303.15 K, 30000 kPa	1107.32
303.15 K, 35000 kPa	1109.47
303.15 K, 40000 kPa	1111.6
303.15 K, 45000 kPa	1113.68
303.15 K, 50000 kPa	1115.8
303.15 K, 55000 kPa	1117.71
303.15 K, 60000 kPa	1119.7
303.15 K, 65000 kPa	1121.56
308.15 K, 100 kPa	1089.26
308.15 K, 5000 kPa	1091.74
308.15 K, 10000 kPa	1094.35
308.15 K, 15000 kPa	1096.91
308.15 K, 20000 kPa	1099.29
308.15 K, 25000 kPa	1101.65
308.15 K, 30000 kPa	1103.95
308.15 K, 35000 kPa	1106.18
308.15 K, 40000 kPa	1108.37
308.15 K, 45000 kPa	1110.56
308.15 K, 50000 kPa	1112.6
308.15 K, 55000 kPa	1114.63
308.15 K, 60000 kPa	1116.66
308.15 K, 65000 kPa	1118.6
313.15 K, 100 kPa	1085.88
313.15 K, 5000 kPa	1088.47
313.15 K, 10000 kPa	1091.09
313.15 K, 15000 kPa	1093.69
313.15 K, 20000 kPa	1096.09
313.15 K, 25000 kPa	1098.54
313.15 K, 30000 kPa	1100.84
313.15 K, 35000 kPa	1103.14
313.15 K, 40000 kPa	1105.37
313.15 K, 45000 kPa	1107.51
313.15 K, 50000 kPa	1109.66
313.15 K, 55000 kPa	1111.71
313.15 K, 60000 kPa	1113.7
313.15 K, 65000 kPa	1115.65
318.15 K, 100 kPa	1082.49
318.15 K, 5000 kPa	1085.16
318.15 K, 10000 kPa	1087.86
318.15 K, 15000 kPa	1090.4
318.15 K, 20000 kPa	1092.87
318.15 K, 25000 kPa	1095.34
318.15 K, 30000 kPa	1097.71
318.15 K, 35000 kPa	1100
318.15 K, 40000 kPa	1102.23
318.15 K, 45000 kPa	1104.4
318.15 K, 50000 kPa	1106.52
318.15 K, 55000 kPa	1108.63
318.15 K, 60000 kPa	1110.64
318.15 K, 65000 kPa	1112.69
323.15 K, 100 kPa	1079.26
323.15 K, 5000 kPa	1082.03
323.15 K, 10000 kPa	1084.69
323.15 K, 15000 kPa	1087.27
323.15 K, 20000 kPa	1089.69
323.15 K, 25000 kPa	1092.26
323.15 K, 30000 kPa	1094.65
323.15 K, 35000 kPa	1096.93
323.15 K, 40000 kPa	1099.23
323.15 K, 45000 kPa	1101.43
323.15 K, 50000 kPa	1103.63
323.15 K, 55000 kPa	1105.69
323.15 K, 60000 kPa	1107.78
323.15 K, 65000 kPa	1109.77
328.15 K, 100 kPa	1075.89
328.15 K, 5000 kPa	1078.67
328.15 K, 10000 kPa	1081.32
328.15 K, 15000 kPa	1083.91
328.15 K, 20000 kPa	1086.53
328.15 K, 25000 kPa	1089.05
328.15 K, 30000 kPa	1091.41
328.15 K, 35000 kPa	1093.82
328.15 K, 40000 kPa	1096.15
328.15 K, 45000 kPa	1098.38
328.15 K, 50000 kPa	1100.54
328.15 K, 55000 kPa	1102.61
328.15 K, 60000 kPa	1104.75
328.15 K, 65000 kPa	1106.82
333.15 K, 100 kPa	1072.64
333.15 K, 5000 kPa	1075.39
333.15 K, 10000 kPa	1078.24
333.15 K, 15000 kPa	1080.9
333.15 K, 20000 kPa	1083.46
333.15 K, 25000 kPa	1086.03
333.15 K, 30000 kPa	1088.48
333.15 K, 35000 kPa	1090.88
333.15 K, 40000 kPa	1093.31
333.15 K, 45000 kPa	1095.48
333.15 K, 50000 kPa	1097.71
333.15 K, 55000 kPa	1099.8
333.15 K, 60000 kPa	1101.97
333.15 K, 65000 kPa	1104.05
